We go through 20 molecules from patent publication US8901118B2, “Compounds and methods for kinase modulation, and indications therefor” (Plexxikon Inc., priority 2010, dated 2014).

Common to all, as to type: in vitro ADME
One assay deals with CYP2C19 (Homo sapiens, UniProt P33261). Put plainly: CYP2C19 inhibition (fluorescent substrate CEC). To be noted: read-out: Cyp IC50 2C19. A digest of the protocol: (§1)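 Test compounds, 10-point 1:1 serial dilutions in NADPH-regenerating cofactor mix, were preincubated 10 min at 37° C before recombinant enzyme and fluorogenic substrate reactions at 37° C (CYP1A2 15 min; CYP2C9 45 min; CYP2C19, 2D6 30 min). Product fluorescence was read at 409 ex with 460 em (1A2, 2C19) or 530 em (2C9, 2D6), and IC50 fitted from signal versus concentration.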

A further assay addresses CYP2C9 (Homo sapiens, UniProt P11712). Kind of assay: CYP2C9 inhibition (fluorescent substrate MFC). To be noted: read-out: Cyp IC50 2C9. In outline: as §1
For another assay, the target named is T1, CYP1A2 (Homo sapiens, UniProt P05177).
T1 sequence (P05177 1-516): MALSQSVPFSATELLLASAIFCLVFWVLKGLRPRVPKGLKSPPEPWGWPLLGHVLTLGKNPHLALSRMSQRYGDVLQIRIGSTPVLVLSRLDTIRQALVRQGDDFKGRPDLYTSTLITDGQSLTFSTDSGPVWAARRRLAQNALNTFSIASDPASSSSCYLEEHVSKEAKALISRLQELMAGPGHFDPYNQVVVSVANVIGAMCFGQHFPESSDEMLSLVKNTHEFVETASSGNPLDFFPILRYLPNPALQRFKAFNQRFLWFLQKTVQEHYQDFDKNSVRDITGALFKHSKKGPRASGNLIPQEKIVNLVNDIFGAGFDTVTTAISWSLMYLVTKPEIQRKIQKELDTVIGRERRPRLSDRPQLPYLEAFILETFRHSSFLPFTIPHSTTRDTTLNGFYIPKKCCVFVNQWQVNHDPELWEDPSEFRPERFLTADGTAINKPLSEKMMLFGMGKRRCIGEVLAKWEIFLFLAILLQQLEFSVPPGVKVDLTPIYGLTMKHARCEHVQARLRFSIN
Put plainly: CYP1A2 inhibition (fluorescent substrate CEC). Conditions: read-out: Cyp IC50 1A2. A digest of the protocol:
as §1

The target in the next assay is CYP3A4(BFC) (Homo sapiens, UniProt P08684). Kind of assay: CYP3A4(BFC) inhibition. Conditions: CYP3A4, substrate BFC; read-out: Cyp IC50 3A4(BFC). In outline:
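Inhibition of human CYP3A4 with the BFC substrate was measured by fluorescence loss of the metabolized product. Compounds at 100 mM in DMSO were diluted 1 μL into 82 μL acetonitrile, then 11 μL into 204 μL cofactor mix with NADPH regeneration solutions, and serially diluted 1:1 to 10 points. Plates were incubated 30 min at 37° C and read at 409 ex/460 em to obtain IC50.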

Sequence of CYP2C19 (P33261 whole entry): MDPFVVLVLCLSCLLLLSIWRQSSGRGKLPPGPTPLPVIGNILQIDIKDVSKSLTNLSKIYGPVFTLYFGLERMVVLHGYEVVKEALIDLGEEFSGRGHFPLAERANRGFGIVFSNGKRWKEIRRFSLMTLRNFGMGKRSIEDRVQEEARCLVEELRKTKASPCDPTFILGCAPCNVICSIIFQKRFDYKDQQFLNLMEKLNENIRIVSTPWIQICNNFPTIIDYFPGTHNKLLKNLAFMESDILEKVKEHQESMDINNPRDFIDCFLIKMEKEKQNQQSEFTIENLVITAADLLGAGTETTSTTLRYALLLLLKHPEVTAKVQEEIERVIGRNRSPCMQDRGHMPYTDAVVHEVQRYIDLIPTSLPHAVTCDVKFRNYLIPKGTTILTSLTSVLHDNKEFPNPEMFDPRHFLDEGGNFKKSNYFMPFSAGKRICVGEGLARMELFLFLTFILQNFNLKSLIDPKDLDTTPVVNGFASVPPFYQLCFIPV
Sequence of CYP3A4(BFC) (P08684 whole entry): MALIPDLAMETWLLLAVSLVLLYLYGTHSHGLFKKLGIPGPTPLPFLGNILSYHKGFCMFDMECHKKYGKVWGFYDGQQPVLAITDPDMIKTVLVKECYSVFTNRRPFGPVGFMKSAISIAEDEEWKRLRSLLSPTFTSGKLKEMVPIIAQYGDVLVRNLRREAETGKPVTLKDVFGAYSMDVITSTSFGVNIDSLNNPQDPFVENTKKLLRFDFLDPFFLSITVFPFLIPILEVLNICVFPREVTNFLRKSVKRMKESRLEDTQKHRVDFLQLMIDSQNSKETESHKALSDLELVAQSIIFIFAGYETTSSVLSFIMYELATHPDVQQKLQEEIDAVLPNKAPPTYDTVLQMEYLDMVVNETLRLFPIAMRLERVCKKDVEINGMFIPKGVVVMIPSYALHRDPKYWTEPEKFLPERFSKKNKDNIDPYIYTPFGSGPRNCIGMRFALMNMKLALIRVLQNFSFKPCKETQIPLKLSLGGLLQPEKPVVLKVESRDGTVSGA
Sequence of CYP2C9 (P11712 whole entry): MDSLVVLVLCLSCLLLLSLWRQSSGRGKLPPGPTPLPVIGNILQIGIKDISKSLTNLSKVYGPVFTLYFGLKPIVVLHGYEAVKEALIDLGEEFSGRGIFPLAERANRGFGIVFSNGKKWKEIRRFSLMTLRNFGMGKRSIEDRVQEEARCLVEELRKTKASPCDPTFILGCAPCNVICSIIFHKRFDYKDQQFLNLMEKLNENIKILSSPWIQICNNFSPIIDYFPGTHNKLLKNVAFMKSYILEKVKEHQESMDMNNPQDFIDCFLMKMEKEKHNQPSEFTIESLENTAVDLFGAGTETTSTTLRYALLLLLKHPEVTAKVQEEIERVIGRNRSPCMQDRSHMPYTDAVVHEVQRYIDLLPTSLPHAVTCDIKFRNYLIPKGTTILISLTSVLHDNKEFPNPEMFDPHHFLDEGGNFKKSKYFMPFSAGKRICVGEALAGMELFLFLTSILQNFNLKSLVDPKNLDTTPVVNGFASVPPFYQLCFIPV

Regarding `COc1ccc(Nc2ccc(C(=O)c3c[nH]c4ncc(C)cc34)c(F)n2)cn1` [Compound P-3040, [2-Fluoro-6-(6-methoxy-pyridin-3-ylamino)-pyridin-3-yl]-(5-methyl-1H-pyrrolo[2,3-b]pyridin-3-yl)-methanone], the IC50 on CYP2C19, on CYP2C9, on CYP1A2 and on CYP3A4(BFC) was > 10 µM each time.

For the molecule `CCOc1ccc(Nc2ccc(Cc3c[nH]c4ncc(C)cc34)c(F)n2)cn1` [Compound P-3039, (6-ethoxy-pyridin-3-yl)-[6-fluoro-5-(5-methyl-1H-pyrrolo[2,3-b]pyridin-3-ylmethyl)-pyridin-2-yl]-amine], the IC50 at CYP2C19, on CYP2C9, at CYP1A2 and on CYP3A4(BFC) was > 10 µM each time.

For `CCc1ccc(Nc2ccc(C(=O)c3c[nH]c4ncc(C)cc34)c(F)n2)cn1` [Compound P-3049, [6-(6-Ethyl-pyridin-3-ylamino)-2-fluoro-pyridin-3-yl]-(5-methyl-1H-pyrrolo[2,3-b]pyridin-3-yl)-methanone], the IC50 on CYP2C19, at CYP2C9, at CYP1A2 and on CYP3A4(BFC) was > 10 µM in each case.

On to `Cc1cnc2[nH]cc(Cc3ccc(Nc4ccc(C5CC5)nc4)nc3F)c2c1` [Compound P-3050, (6-Cyclopropyl-pyridin-3-yl)-[6-fluoro-5-(5-methyl-1H-pyrrolo[2,3-b]pyridin-3-ylmethyl)-pyridin-2-yl]-amine], for which the IC50 on CYP2C19, on CYP2C9, at CYP1A2 and at CYP3A4(BFC) was > 10 µM throughout.

For the molecule `FC1(F)CCC(Nc2ncc(Cc3c[nH]c4ncc(Cl)cc34)cn2)CC1` [Compound P-3004], the half-inhibitory concentration (IC50) on CYP2C19 is 5 to 10 µM; at CYP2C9, > 10 µM; at CYP1A2 it was > 10 µM; on CYP3A4(BFC), > 10 µM.

On to `CCOc1ncnc2[nH]cc(Cc3ccc(Nc4ccc(OC)nc4)nc3F)c12` [Compound P-4018, [5-(4-Ethoxy-7H-pyrrolo[2,3-d]pyrimidin-5-ylmethyl)-6-fluoro-pyridin-2-yl]-(6-methoxy-pyridin-3-yl)-amine], for which the IC50 is < 5 µM on CYP2C19, > 10 µM at CYP2C9, > 10 µM on CYP1A2 and 5 to 10 µM at CYP3A4(BFC).

Regarding `CCc1ccc(Nc2ccc(Cc3c[nH]c4ncnc(C5CC5)c34)c(F)n2)cn1` [Compound P-4028, [5-(4-Cyclopropyl-7H-pyrrolo[2,3-d]pyrimidin-5-ylmethyl)-6-fluoro-pyridin-2-yl]-(6-ethyl-pyridin-3-yl)-amine], the IC50 on CYP2C19 is 5 to 10 µM; on CYP2C9, 5 to 10 µM; at CYP1A2, > 10 µM; on CYP3A4(BFC) it was > 10 µM.

Regarding `CCn1cc(Nc2ccc(C(=O)c3c[nH]c4ncnc(C5CC5)c34)c(F)n2)cn1` [Compound P-4037, (4-Cyclopropyl-7H-pyrrolo[2,3-d]pyrimidin-5-yl)-[6-(1-ethyl-1H-pyrazol-4-ylamino)-2-fluoro-pyridin-3-yl]-methanone], the half-maximal inhibitory concentration (IC50) is > 10 µM on CYP2C19, 5 to 10 µM on CYP2C9, > 10 µM on CYP1A2 and 5 to 10 µM at CYP3A4(BFC).

With `Fc1nc(Nc2ccc(C3CC3)nc2)ccc1Cc1c[nH]c2ncccc12` [Compound P-3053, (6-Cyclopropyl-pyridin-3-yl)-[6-fluoro-5-(1H-pyrrolo[2,3-b]pyridin-3-ylmethyl)-pyridin-2-yl]-amine], the concentration for half-maximal inhibition (IC50) on CYP2C19, on CYP2C9, on CYP1A2 and at CYP3A4(BFC) was > 10 µM throughout.

On to `Cc1ccc(Nc2ccc(C(=O)c3c[nH]c4ncnc(C5CC5)c34)c(F)n2)cn1` [Compound P-4031, (4-Cyclopropyl-7H-pyrrolo[2,3-d]pyrimidin-5-yl)-[2-fluoro-6-(6-methyl-pyridin-3-ylamino)-pyridin-3-yl]-methanone], for which the half-maximal inhibitory concentration (IC50) on CYP2C19, at CYP2C9, at CYP1A2 and at CYP3A4(BFC) was > 10 µM each time.

On to `Clc1cnc2[nH]cc(Cc3cnc(NC4CCCCCC4)nc3)c2c1` [Compound P-3006, [5-(5-Chloro-1H-pyrrolo[2,3-b]pyridin-3-ylmethyl)-pyrimidin-2-yl]-cycloheptyl-amine], for which the 50% inhibitory concentration (IC50) on CYP2C19, at CYP2C9, at CYP1A2 and on CYP3A4(BFC) was > 10 µM each time.

Turning to `Clc1cnc2[nH]cc(Cc3cnc(NC4CCCCC4)nc3)c2c1` [Compound P-3001, [5-(5-chloro-1H-pyrrolo[2,3-b]pyridin-3-ylmethyl)-pyrimidin-2-yl]-cyclohexyl-amine], the IC50 at CYP2C19, at CYP2C9, at CYP1A2 and at CYP3A4(BFC) was > 10 µM each time.

Regarding `Cc1cnc2[nH]cc(C(=O)c3ccc(Nc4ccc(C5CC5)nc4)nc3F)c2c1` [Compound P-3051, [6-(6-Cyclopropyl-pyridin-3-ylamino)-2-fluoro-pyridin-3-yl]-(5-methyl-1H-pyrrolo[2,3-b]pyridin-3-yl)-methanone], the IC50 at CYP2C19, at CYP2C9, on CYP1A2 and on CYP3A4(BFC) was > 10 µM each time.

For `CCn1cc(Nc2ccc(Cc3c[nH]c4ncnc(C)c34)c(F)n2)cn1` [Compound P-4013, (1-Ethyl-1H-pyrazol-4-yl)-[6-fluoro-5-(4-methyl-7H-pyrrolo[2,3-d]pyrimidin-5-ylmethyl)-pyridin-2-yl]-amine], the IC50 at CYP2C19 is > 10 µM; at CYP2C9, < 5 µM; at CYP1A2 it was > 10 µM; at CYP3A4(BFC), > 10 µM.

On to `COCCOc1ncnc2[nH]cc(Cc3ccc(Nc4ccc(OC)nc4)nc3F)c12` [Compound P-4019, {6-Fluoro-5-[4-(2-methoxy-ethoxy)-7H-pyrrolo[2,3-d]pyrimidin-5-ylmethyl]-pyridin-2-yl}-(6-methoxy-pyridin-3-yl)-amine], for which the IC50 at CYP2C19 was 5 to 10 µM; on CYP2C9, > 10 µM; at CYP1A2 it was > 10 µM; on CYP3A4(BFC), 5 to 10 µM.

For `CCOc1ccc(Nc2ccc(Cc3c[nH]c4ncnc(OC)c34)c(F)n2)cn1` [Compound P-4005, (6-Ethoxy-pyridin-3-yl)-[6-fluoro-5-(4-methoxy-7H-pyrrolo[2,3-d]pyrimidin-5-ylmethyl)-pyridin-2-yl]-amine], the half-maximal inhibitory concentration (IC50) on CYP2C19, at CYP2C9, on CYP1A2 and on CYP3A4(BFC) was > 10 µM in each case.

In the case of `COc1ccc(Nc2ccc(C(=O)c3c[nH]c4ncnc(C5CC5)c34)c(F)n2)cn1` [Compound P-4022, (4-cyclopropyl-7H-pyrrolo[2,3-d]pyrimidin-5-yl)-[2-fluoro-6-(6-methoxy-pyridin-3-ylamino)-pyridin-3-yl]-methanone], the half-maximal inhibitory concentration (IC50) at CYP2C19 was 5 to 10 µM; on CYP2C9 it was > 10 µM; on CYP1A2 it was > 10 µM; at CYP3A4(BFC), 5 to 10 µM.

`CCn1cc(Nc2ccc(Cc3c[nH]c4ncnc(OCCOC)c34)c(F)n2)cn1` [Compound P-4014, (1-Ethyl-1H-pyrazol-4-yl)-{6-fluoro-5-[4-(2-methoxy-ethoxy)-7H-pyrrolo[2,3-d]pyrimidin-5-ylmethyl]-pyridin-2-yl}-amine]: the IC50 at CYP2C19 is > 10 µM; at CYP2C9, 5 to 10 µM; at CYP1A2 it was > 10 µM; on CYP3A4(BFC), 5 to 10 µM.

Turning to `Fc1nc(NC2CCC(F)(F)CC2)ccc1Cc1c[nH]c2ncnc(NC3CC3)c12` [Compound P-4129, N-cyclopropyl-5-[[6-[(4,4-difluorocyclohexyl)amino]-2-fluoro-3-pyridyl]methyl]-7H-pyrrolo[2,3-d]pyrimidin-4-amine], the half-inhibitory concentration (IC50) was > 10 µM at CYP2C19, 5 to 10 µM at CYP2C9, > 10 µM on CYP1A2 and < 5 µM at CYP3A4(BFC).

Regarding `CCn1cc(Nc2ccc(Cc3c[nH]c4ncnc(OC)c34)c(F)n2)cn1` [Compound P-4011, (1-Ethyl-1H-pyrazol-4-yl)-[6-fluoro-5-(4-methoxy-7H-pyrrolo[2,3-d]pyrimidin-5-ylmethyl)-pyridin-2-yl]-amine], the half-maximal inhibitory concentration (IC50) on CYP2C19 is > 10 µM; on CYP2C9, 5 to 10 µM; on CYP1A2 it was > 10 µM; on CYP3A4(BFC), 5 to 10 µM.
